In brackets after ≈: the same amount, converted by molar mass.
Assays:
[1] = target: AchE from S. frugiperda (Spodoptera frugiperda, UniProt A0A9R0CUI4); assay: Kinetic study of compound inhibition on AchE; format: biochemical; conditions: for Inhibition type on AchE: Lineweaver-Burk double reciprocal plots; for Reversibility of AchE inhibition: reaction rate vs enzyme concentration
Protocol: Subsequently, 1.5 mM acetylcholine (ACh) (50 µL) and 0.3 mM DTNB (50 µL) were added, and the time was immediately recorded. The OD values were accurately measured after 60 seconds at 412 nm using a microplate reader, and the reaction rate (ΔA/min) was calculated based on the change in OD value per minute.
The OD values were accurately measured after 60 seconds at 412 nm using a microplate reader, and the reaction rate (ΔA/min) was calculated based on the change in OD value per minute. […] The inhibition constant (Ki) of the compound was calculated by plotting the Dixon plot.

[2] = test system: Acetylcholinesterase (AchE); assay: AchE activity in living S. frugiperda after immersion treatment; format: in vivo, Spodoptera frugiperda; conditions: treatment at LC50 and double the LC50, immersion
Protocol: The compounds were prepared in solutions at the LC50 and double the LC50, and 4th-instar S. frugiperda larvae were treated using the immersion method. Ten larvae were treated per concentration, with five replicates, and acetone was used as the solvent control. The Acetylcholinesterase (AchE) activity was measured following the operating procedures of the AchE assay kit (Shenggong Biotech Co., Shanghai, China.).

[3] = test system: 4th instar S. frugiperda larvae; assay: Contact toxicity of compounds, immersion method; format: in vivo, Spodoptera frugiperda; conditions: for Insecticidal activity, contact toxicity (in words): 200 µg/mL; for LC50: Spodoptera frugiperda, Poisoning activity (contact toxicity, immersion), 72 hours, 4th instar larvae
Protocol: The contact toxicity of the compounds against S. frugiperda was determined via the immersion method ([Li et al., 2023]). The compounds were prepared in solutions with a concentration of 200 μg/mL using acetone as the solvent. Uniformly sized 4th instar S. frugiperda larvae were selected and immersed in the solutions for 3–4 seconds. Each treatment included 10 Petri dishes, with one larva per dish, and the experiment was repeated three times. Acetone was used as the solvent control, and a blank control was also used. The number of dead insects was recorded at 24, 48, and 72 hours, and the corrected mortality rate was calculated.
(§1) Mortality(%)=(Mortality of treatment group-Mortality of control group)/(1-Mortality of control group)×100%
The compound concentrations were prepared as 50, 100, 200, 400, and 800 μg/mL, with the remaining procedures following those in section 2.6.2. The number of dead insects was recorded after 72 hours. The experimental data was processed using Microsoft Excel and SPSS 20.0 software, converting the inhibition rates into corresponding probability values to obtain the toxicity regression equation and calculate the LC50 value.

[4] = test system: 4th instar S. frugiperda larva; assay: Dietary toxicity of compounds, artificial feed film method; format: in vivo, Spodoptera frugiperda; conditions: for Insecticidal activity, dietary poisoning (in words): 200 µg/mL; for LC50: Spodoptera frugiperda, feed or water, Gastrotoxic activity (dietary toxicity), 72 hours, 4th instar larvae
Protocol: The dietary toxicity of the compounds against S. frugiperda was determined via the artificial feed film method ([Lu, 2022]). Take 1g of artificial feed and place it in a petri dish, then add 0.1 ml of the liquid medicine (acetone as the solvent and concentration of 200 μg/mL for all compounds) was added to form a uniform film on the surface of the feed. After allowing the feed to dry in a shaded area, one uniformly sized 4th instar S. frugiperda larva was introduced into each dish. Each treatment included 10 Petri dishes, and the experiment was repeated twice. Acetone was used as the solvent control, and a blank control was also used. Mortality was recorded at 24, 48, and 72 hours, and the corrected mortality rate was calculated.
as §1
The compound concentrations used were 50, 100, 200, 400, and 800 μg/mL. The remaining procedures were the same as those described in section 2.6.1. After 72 hours, the number of dead insects was recorded. The experimental data were processed using Microsoft Excel and SPSS 20.0 software, with the inhibition rates converted into corresponding probability values. A toxicity regression equation was derived, and the LC50 value was calculated.

AchE from S. frugiperda, sequence (A0A9R0CUI4 18-694): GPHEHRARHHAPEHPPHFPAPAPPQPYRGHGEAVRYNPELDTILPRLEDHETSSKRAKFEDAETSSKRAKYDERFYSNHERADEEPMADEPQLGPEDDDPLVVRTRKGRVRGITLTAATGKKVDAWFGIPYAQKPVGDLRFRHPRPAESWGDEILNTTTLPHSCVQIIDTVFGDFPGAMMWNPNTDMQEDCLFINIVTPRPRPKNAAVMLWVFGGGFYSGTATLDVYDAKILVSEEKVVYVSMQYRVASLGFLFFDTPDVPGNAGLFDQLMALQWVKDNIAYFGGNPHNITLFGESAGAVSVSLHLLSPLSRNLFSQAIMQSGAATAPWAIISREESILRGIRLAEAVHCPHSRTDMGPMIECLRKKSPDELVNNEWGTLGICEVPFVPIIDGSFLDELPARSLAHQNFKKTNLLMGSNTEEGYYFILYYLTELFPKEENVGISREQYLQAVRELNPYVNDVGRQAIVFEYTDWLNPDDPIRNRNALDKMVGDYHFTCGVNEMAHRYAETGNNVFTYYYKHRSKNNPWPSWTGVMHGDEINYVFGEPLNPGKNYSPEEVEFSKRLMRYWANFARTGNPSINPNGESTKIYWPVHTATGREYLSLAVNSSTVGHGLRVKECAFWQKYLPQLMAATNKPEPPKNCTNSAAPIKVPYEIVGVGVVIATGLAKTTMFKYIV

O=C(/C=C/c1ccc(O)cc1)NCCc1ccc(O)cc1 [Compound 1, N-p-coumaroyl tyramine]
Inhibition type on AchE [1]: competitive inhibitors | Reversibility of AchE inhibition [1]: reversible inhibitors | AchE activity of the test insects [2]: significantly decreased | Insecticidal activity, contact toxicity (in words) [3]: good insecticidal activity | LC50 [3]: 93 µg/mL (≈ 328 µM) | Insecticidal activity, dietary poisoning (in words) [4]: good insecticidal activity | LC50 [4]: 305 µg/mL (≈ 1080 µM)

COc1cc(/C=C/C(=O)NCCc2ccc(O)cc2)ccc1O [Compound 2, N-trans-feruloyl tyramine]
Inhibition type on AchE [1]: competitive inhibitors | Reversibility of AchE inhibition [1]: reversible inhibitors | AchE activity of the test insects [2]: significantly decreased | Insecticidal activity, contact toxicity (in words) [3]: good insecticidal activity | LC50 [3]: 48 µg/mL (≈ 153 µM) | Insecticidal activity, dietary poisoning (in words) [4]: good insecticidal activity | LC50 [4]: 89.9 µg/mL (≈ 287 µM)
